These results are taken from patent US4525356A, “N-substituted flavone-8-carboxamides” (Hokuriku Pharmaceutical Co., Ltd., priority 1982, dated 1985).

One may read the half-life as the time in which the quantity being followed falls by half. Higher therefore signals slow decline.

One data set relates to urinary reflex. The data set can be described thus: Supression of urinary reflex (bladder balloon, intraduodenal administration). In kind it is in vivo, male Wister rats. The settings on record: for ED50: Rattus norvegicus, 50% effective dose, suppression of urinary reflex by more than 50%, up and down method, anesthetized male Wister rats, via duodenum, read-out: ID50 (the source's name); for Ratio of Effect: from ID50, Effect of Reference (Reference 1) defined as 1.00. On the procedure:
According to the method of Kaseda et al. (Rinsho Seiri, 5, 540 (1975)), male Wister rats, weighing approximately 300 g and fasted for 15 to 20 hours prior to experiments, were anesthetized by intraperitoneal injection of 500 mg/Kg of urethane and 50 mg/Kg of α-chloralose, and fixed to a supine position. Then the lower abdomen was opened through a midline incision to expose the bladder, and a balloon (1.5 to 2.0 cm^3) was inserted into the urinary bladder via small incision in the base thereof. The change of inner pressure is recorded via pressure transducer. The urinary reflex was induced by elevating the inner pressure to 10 to 20 cm H2 O. Urine was excreted from the incision of the bladder, where balloon was inserted.
The test compounds were given through polyethylene tube inserted into duodenum via an incision in the fundus.
Mean value of contraction according to the urinary reflex appeared during ten minutes before the administration of the compounds, and at 15, 30, 45 and 60 minutes thereafter, have been investigated for the determination of the effect of the present compounds. The mean value suppressed by more than 50% compared to the initial value has been estimated as effect. ID50 (50% effective dose) was obtained by up and down method.

A short description of the next data set: in vitro. In kind it is in vitro ADME, male Wister rats. The settings on record: rat, pH 6; for Ratio of Effect (T 1/2): 50 uM; for half-life at 50 µM: small intestinal mucosa homogenate. On the procedure:
(2) Stability in acidic medium (corresponding to artificial small intestinal juice)
After sacrificing male Wister rats (weighing approximately 300 g), small intestine was taken out and small intestinal mucous membrane was scraped off, and 20 ml of 0.1M phosphate buffer (pH 6.00) were added per 0.5 g of small intestinal mucous membrane (wet weight) to give 2.5% of homogenate.
Test compound was dissolved in the homogenate to give definite concentration (50 uM). With shaking of the obtained mixture at 37° C., sampling was carried out from time to time, and the content of each compound was quantitatively measured by analyzing peak height of each compound by a reversed-phase high performance liquid chromatography. The half-life time of each compound in acidic medium (corresponding to artificial small intestinal juice, pH 6.0) was measured from a graph indicating content change of each compound against time.
The compounds of the present invention and flavoxate (Reference 1) should be absorbed, after p.o. administation, in the small intestine to show medical effect. Therefore, the stability of the compounds against the hydrolyzation according to the nonspecific esterase contained in small intestinal mucous membrane is very important.

As to `CCN(CC)CCNC(=O)c1cccc2c(=O)c(C)c(-c3ccccc3)oc12` [Compound 1], in the data set with urinary reflex, the ED50 was 36.7 mg/kg and the “Ratio of Effect” value stood at 7.42. In the data set “in vitro”, the “Ratio of Effect (T 1/2)” value is on record as 1066.1 and the half-life at 50 µM is 27.1 days.
On to `Cc1c(-c2ccccc2)oc2c(C(=O)NCCN3CCCCC3)cccc2c1=O` [Compound 2], for which, in the data set on urinary reflex, the ED50 was 26.8 mg/kg and the “Ratio of Effect” value stood at 10.16. For the same compound, in the data set “in vitro”, the “Ratio of Effect (T 1/2)” value is reported as 475.4 and the half-life at 50 µM was 12.1 days.
With `CCN(CC)CCN(C)C(=O)c1cccc2c(=O)c(C)c(-c3ccccc3)oc12` [Compound 3], in the data set with urinary reflex, the ED50 was 46.7 mg/kg and the “Ratio of Effect” value was 5.83. In the data set “in vitro”, the “Ratio of Effect (T 1/2)” value turned out to be 252.1 and the half-life at 50 µM was 6.41 days.
Consider `Cc1c(-c2ccccc2)oc2c(C(=O)NCC(C)N3CCCCC3)cccc2c1=O` (stereo not drawn) [Compound 4], for which, in the data set with urinary reflex, the ED50 turned out to be 46.7 mg/kg and the “Ratio of Effect” value came to 5.83. Moreover, in “in vitro”, the “Ratio of Effect (T 1/2)” value was 1276.9 and the half-life at 50 µM is 32.5 days.
Turning to `CCN(CC)CCNC(=O)c1cccc2c(=O)c(C)c(-c3ccc(OC)cc3)oc12` [Compound 5], in the data set with urinary reflex, the ED50 amounted to 93.3 mg/kg and the “Ratio of Effect” value was determined as 2.92. For the same compound, in the data set “in vitro”, the “Ratio of Effect (T 1/2)” value came to 1177.4 and the half-life at 50 µM is 29.9 days.
In the case of `Cc1c(-c2ccccc2)oc2c(C(=O)OCCN3CCCCC3)cccc2c1=O` [Reference 1, flavoxate, reference compound], in the data set with urinary reflex, the ED50 turned out to be 272 mg/kg and the “Ratio of Effect” value was found to be 1.00. Moreover, in the data set “in vitro”, the “Ratio of Effect (T 1/2)” value was determined as 1.0 and the half-life at 50 µM was 0.0254 days.
The like results for `CCN(CC)CCOC(=O)c1cccc2c(=O)c(C)c(-c3ccccc3)oc12` [Reference 2, reference compound] were, in that order, 325 mg/kg, 0.84, 2.3 and 0.0579 days.
With `Cc1c(-c2ccccc2)oc2c(C(=O)O)cccc2c1=O` [Reference 3, reference compound], in the data set with urinary reflex, the ED50 came out at 308 mg/kg and the “Ratio of Effect” value turned out to be 0.89.
